# Entries after “also recorded” stand apart in the source; their conditions may differ.
# Assay: Quantification of CLF in 5 human plasma samples by HPLC-MS/MS with calibration curves from SS CLF-MetOH and SS CLF-EtOH
# Format: physicochemical
# Procedure: Two working solutions of CLF were prepared. […] Five human plasma samples, spiked with CLF from both working solutions, were prepared for HPLC-MS/MS analysis. These samples (named S1, S2, S3, S4 and S5) were thawed at room temperature, extemporaneously, and 100 μl of each were transferred in appropriate tubes. The HPLC-MS/MS analysis was conducted with two calibration curves, constituted with 7 single points (non zero). The first one was prepared by serial dilutions in methanol of the working solution named SS CLF-MetOH. The second one was prepared by serial dilutions in methanol of the working solution named SS CLF-EtOH. Both working solutions were centrifuged 5 min at 3000 g before dilutions. These dilutions of CLF in methanol allowed obtaining the 10× standard solutions used for standard sample preparation. Then, calibration curves were prepared by adding 10 μl of the concentrated standard solutions to 90 μl of free-drug human plasma. The final concentrations of calibrators were of 1000, 500, 250, 100, 25, 5 and 1 ng/ml. […] The contents of CLF were determined in 5 human plasma samples provided, according to the standard curve generated from both separate working solutions. […] The content of CLF was semi-quantified using data previously obtained. The UV response at 254 nm was used for semi-quantification. […] The differences between both quantifications were also evaluated as follows: […]
smiles,measurement,setting,value
"CC(CCC(=O)NC(CCCCNC(=S)Nc1ccc(-c2c3ccc(=O)cc-3oc3cc(O)ccc23)c(C(=O)O)c1)C(=O)O)C1CCC2C3C(O)CC4CC(O)CCC4(C)C3CC(O)C12C [CLF, Cholyl-L-Lysyl-Fluorescein]",quantitative value of CLF prepared in methanol (100%) relative to CLF prepared in aqueous ethanol (higher by),"EtOH:H2O:NaOH (50%) 500:1000:30, both immunoassay and HPLC methodologies",approximately 40%
same,tautomerization of CLF,isomeric form of SS CLF-EtOH not detected in standard samples in human plasma,reversible and depends on the pH of the medium; also recorded: reversible and is dependent on the pH of the medium
